Source: PubChem BioAssay AID1963836 (Molecular Pharmacology Branch, DTP, NCI, 2024)

Tested on: 857933-349-R-J2-PDC complex spheroid viability
Assay: Anticancer human tumor 857933-349-R-J2-PDC patient-derived colon adenocarcinoma cell line growth inhibition [POLQ]
Details: for IC50: curve of first compound; for viability, T/C: stronger effect = lower value
Method in brief: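 Complex spheroid viability model combining PDC tumour cells with endothelial (HUVEC) and MSC stromal cells. Novobiocin, ART-558 or RP6685 were tested singly and in combination with standard and investigational anticancer drugs. Each was titrated in half-log steps from near clinical Cmax, or from 10 microM where Cmax was unknown.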
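Note: spheroids exposed to compounds for seven days before readout.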

## C=CC(=O)N1CCN(c2nc(=O)n(-c3c(C)ccnc3C(C)C)c3nc(-c4c(O)cccc4F)c(F)cc23)C(C)C1 (configuration not stated) + Nc1ccc(C#CCN(C(=O)Cc2ncc(C(F)(F)F)cc2C(F)(F)F)c2ccc(F)cc2)nn1
Second compound 0.0316 µM
  IC50: > 10 µM
Second compound 0.1 µM
  IC50: > 10 µM
Second compound 0.316 µM
  IC50: > 10 µM
Second compound 1 µM
  IC50: > 10 µM
Second compound 3.16 µM
  IC50: > 10 µM
Second compound 10 µM
  IC50: > 10 µM
Second compound 0.0316 µM, first compound 0.0316 µM
  viability, T/C: 90.6%
Second compound 0.0316 µM, first compound 0.1 µM
  viability, T/C: 101%
Second compound 0.0316 µM, first compound 0.316 µM
  viability, T/C: 113%
Second compound 0.0316 µM, first compound 1 µM
  viability, T/C: 98.6%
Second compound 0.0316 µM, first compound 3.16 µM
  viability, T/C: 113%
Second compound 0.0316 µM, first compound 10 µM
  viability, T/C: 87.6%
Second compound 0.1 µM, first compound 0.0316 µM
  viability, T/C: 99.3%
Second compound 0.1 µM, first compound 0.1 µM
  viability, T/C: 90.7%
Second compound 0.1 µM, first compound 0.316 µM
  viability, T/C: 105%
Second compound 0.1 µM, first compound 1 µM
  viability, T/C: 100%
Second compound 0.1 µM, first compound 3.16 µM
  viability, T/C: 98.9%
Second compound 0.1 µM, first compound 10 µM
  viability, T/C: 95.5%
Second compound 0.316 µM, first compound 0.0316 µM
  viability, T/C: 107%
Second compound 0.316 µM, first compound 0.1 µM
  viability, T/C: 98.5%
Second compound 0.316 µM, first compound 0.316 µM
  viability, T/C: 98.3%
Second compound 0.316 µM, first compound 1 µM
  viability, T/C: 112%
Second compound 0.316 µM, first compound 3.16 µM
  viability, T/C: 93.1%
Second compound 0.316 µM, first compound 10 µM
  viability, T/C: 83.5%
Second compound 1 µM, first compound 0.0316 µM
  viability, T/C: 111%
Second compound 1 µM, first compound 0.1 µM
  viability, T/C: 107%
Second compound 1 µM, first compound 0.316 µM
  viability, T/C: 97.6%
Second compound 1 µM, first compound 1 µM
  viability, T/C: 100%
Second compound 1 µM, first compound 3.16 µM
  viability, T/C: 110%
Second compound 1 µM, first compound 10 µM
  viability, T/C: 97.2%
Second compound 3.16 µM, first compound 0.0316 µM
  viability, T/C: 103%
Second compound 3.16 µM, first compound 0.1 µM
  viability, T/C: 88.8%
Second compound 3.16 µM, first compound 0.316 µM
  viability, T/C: 96.4%
Second compound 3.16 µM, first compound 1 µM
  viability, T/C: 101%
Second compound 3.16 µM, first compound 3.16 µM
  viability, T/C: 108%
Second compound 3.16 µM, first compound 10 µM
  viability, T/C: 98.5%
Second compound 10 µM, first compound 0.0316 µM
  viability, T/C: 81.2%
Second compound 10 µM, first compound 0.1 µM
  viability, T/C: 101%
Second compound 10 µM, first compound 0.316 µM
  viability, T/C: 98.9%
Second compound 10 µM, first compound 1 µM
  viability, T/C: 92.6%
Second compound 10 µM, first compound 3.16 µM
  viability, T/C: 112%
Second compound 10 µM, first compound 10 µM
  viability, T/C: 95.3%
